According to patent publication US8389541B2, “Inhibitors of protein tyrosine kinase activity” (MethylGene Inc., priority 2007, dated 2013):

Target: T1, VEGF receptor KDR (Homo sapiens, UniProt P35968)
T1 construct: made in house; host or cells: Sf9 cells (Spodoptera frugiperda), baculovirus
Test: In vitro receptor tyrosine kinase assay (DELFIA), VEGF receptor KDR
Type: biochemical
Details: GST-VEGFR2 806-1356, 0.6 uM ATP; read-out: VEGFR IC50
Excerpt: In the case of VEGF receptor KDR a 1.6-kb cDNA corresponding to the catalytic domain of VEGFR2 or KDR (Genbank accession number AF035121 amino acid 806 to 1356) is cloned into the Pst I site of the pDEST20 Gateway vector (Invitrogen) for the production of a GST-tagged version of that enzyme.
The GST-VEGFR2806-1356 protein is expressed in Sf9 cells (Spodoptera frugiperda) upon infection with recombinant baculovirus construct.
The supernatant is loaded onto a GST-agarose column (Sigma) equilibrated with PBS pH 7.3. Following a four column volume (CV) wash with PBS pH 7.3+1% Triton X-100 and 4 CV wash with buffer B (50 mM Tris pH 8.0, 20% glycerol and 100 mM NaCl), bound proteins are step eluted with 5 CV of buffer B supplemented with 5 mM DTT and 15 mM glutathion. […] Final GST-VEGFR2806-1356 protein preparations concentrations are about 0.7 mg/ml with purity approximating 70%.

T1 sequence (P35968 806-1356): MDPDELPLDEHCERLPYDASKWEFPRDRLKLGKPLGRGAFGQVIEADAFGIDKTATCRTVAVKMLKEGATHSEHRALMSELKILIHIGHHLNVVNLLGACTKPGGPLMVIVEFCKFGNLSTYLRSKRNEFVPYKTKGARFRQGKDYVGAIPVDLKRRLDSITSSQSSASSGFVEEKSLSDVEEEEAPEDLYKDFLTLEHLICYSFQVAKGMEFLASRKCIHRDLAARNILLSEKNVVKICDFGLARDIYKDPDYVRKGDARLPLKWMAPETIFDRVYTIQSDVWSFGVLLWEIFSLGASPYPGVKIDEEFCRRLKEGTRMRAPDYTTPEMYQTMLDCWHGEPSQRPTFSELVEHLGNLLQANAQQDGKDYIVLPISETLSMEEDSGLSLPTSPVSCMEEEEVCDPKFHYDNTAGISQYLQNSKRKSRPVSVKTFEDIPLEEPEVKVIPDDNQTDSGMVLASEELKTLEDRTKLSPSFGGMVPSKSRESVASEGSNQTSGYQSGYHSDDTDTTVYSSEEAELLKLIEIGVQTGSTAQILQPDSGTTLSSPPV

Compound	IC50 [nM]
COCCNCc1ccc(-c2cc3nccc(Oc4ccc(NC(=O)C5(C(=O)Nc6ccccc6)CC5)cc4F)c3s2)cc1 [drawing 310]	< 250
COCCNCc1ccc(-c2cc3nccc(Oc4ccc(NC(=S)NC(=O)Cc5ccccc5OC)cc4F)c3s2)nc1 [drawing 311]	< 250
COCCNCCn1cnc(-c2cc3nccc(Oc4ccc(NC(=S)NC(=O)Cc5ccc(F)cc5)cc4F)c3s2)c1 [drawing 318]	< 250

More lines, now with the values ahead:

IC50 [nM]	Compound
250 to 500	COCCNCc1ccc(-c2cc3nccc(Oc4ccc(NC(=S)NC(=O)Cc5ccccc5)cc4F)c3s2)cn1 [drawing 308]
< 250	COCCNCc1ccc(-c2cc3nccc(Oc4ccc(NC(=S)NC(=O)Cc5ccc(F)cc5)cc4F)c3s2)cn1 [drawing 309]

Test system: A549 cells
Test: Wound healing assay in A549 cells (HGF-stimulated)
Type: cell-based
Details: Homo sapiens, last dose that inhibited gap closing by more than 25%, 24 h, read-out: A549 WOUND_HEALING IC50
Protocol: Wound healing assay in A549 cells. A549 cells (ATCC) are seeded in DMEM low glucose medium complemented with 10% FBS into 24-well plates at a density of 7.5×10^4 cells/well and grown to confluence (48 h). Inhibitors were added to the medium at a range of doses (0.00032-10 uM) for 3 h at which point a gap is introduced by scraping cells with a P1000 pipette tip. Cells are then stimulated to migrate by the addition of HGF (in the form of conditioned medium from 293T cells over-expressing the human HGF gene) and the culture is continued for 24 h. […] For the purpose of standardization, a control is carried on every assay plates.

Compound	IC50 [nM]
COCCNCc1ccc(-c2cc3nccc(Oc4ccc(NC(=O)C5(C(=O)Nc6ccccc6)CC5)cc4F)c3s2)cc1 [drawing 310]	< 250
COCCNCc1ccc(-c2cc3nccc(Oc4ccc(NC(=S)NC(=O)Cc5ccccc5OC)cc4F)c3s2)nc1 [drawing 311]	250 to 500
COCCNCCn1cnc(-c2cc3nccc(Oc4ccc(NC(=S)NC(=O)Cc5ccc(F)cc5)cc4F)c3s2)c1 [drawing 318]	250 to 500

Next, values leading:

IC50 [nM]	Compound
250 to 500	COCCNCc1ccc(-c2cc3nccc(Oc4ccc(NC(=S)NC(=O)Cc5ccccc5)cc4F)c3s2)cn1 [drawing 308]
250 to 500	COCCNCc1ccc(-c2cc3nccc(Oc4ccc(NC(=S)NC(=O)Cc5ccc(F)cc5)cc4F)c3s2)cn1 [drawing 309]

Test system: DU145 cells
Test: Scatter assay in DU145 cells (HGF-stimulated)
Type: cell-based
Details: Homo sapiens, DU-145, last dose that created an inhibitory effect on scattering, 24 h, read-out: DU145 SCATT. INHIB IC50
Protocol: Scatter assays in DU145. The scatter assay is performed as described previously (Miura H, Nishimura K, Tsujimura A, Matsumiya K, Matsumoto K, Nakamura T, et al. Effects of hepatocyte growth factor on E-cadherin-mediated cell-cell adhesion in DU145 prostate cancer cells. Urology 2001; 58(6):1064-9) for DU145 prostate carcinoma cells with the indicated modifications. In brief, DU145 cells (ATCC) are seeded in 24-well plates at a density of 7×10^3 cells/well in MEM medium complemented with 10% FBS and cultured for 48 h, to allow the formation of small compact colonies of cells. Inhibitors are subsequently added at a range of doses (0.00032-10 uM) for 3 h. Cells are then stimulated to migrate by the addition of HGF (in the form of conditioned medium from 293T cells over-expressing the human HGF gene) and the culture is continued for another 24 h. The IC50 values is defined as the last dose that created an inhibitory effect on scattering. For the purpose of standardization a control is carried on every test plates for the DU145 scattering assays.

Compound	IC50 [nM]
COCCNCc1ccc(-c2cc3nccc(Oc4ccc(NC(=O)C5(C(=O)Nc6ccccc6)CC5)cc4F)c3s2)cc1 [drawing 310]	< 250
COCCNCc1ccc(-c2cc3nccc(Oc4ccc(NC(=S)NC(=O)Cc5ccccc5OC)cc4F)c3s2)nc1 [drawing 311]	250 to 500
COCCNCCn1cnc(-c2cc3nccc(Oc4ccc(NC(=S)NC(=O)Cc5ccc(F)cc5)cc4F)c3s2)c1 [drawing 318]	250 to 500

Next, values leading:

IC50 [nM]	Compound
250 to 500	COCCNCc1ccc(-c2cc3nccc(Oc4ccc(NC(=S)NC(=O)Cc5ccccc5)cc4F)c3s2)cn1 [drawing 308]
< 250	COCCNCc1ccc(-c2cc3nccc(Oc4ccc(NC(=S)NC(=O)Cc5ccc(F)cc5)cc4F)c3s2)cn1 [drawing 309]

Target: T2, c-Met (Homo sapiens, UniProt P08581)
T2 construct: endogenous in cells; host or cells: MKN45 gastric carcinoma cells
Test: Inhibition of c-Met phosphorylation in MKN45 cells (direct ELISA)
Type: cell-based
Details: 3 h treatment, read-out: CMET ELISA IN MKN45 IC50
Excerpt: The following assay is used to determine inhibition of c-Met phosphorylation.
The c-Met receptor is expressed in numerous cancer cell lines derived from tumors of epithelial origin. In MKN45 gastric carcinoma cells the c-Met gene is amplified, resulting in several-fold overexpression of the receptor and its constitutive activation. For this reason constitutively high levels of ERK1/2 are also detected in these cells, independently of HGF-added stimulation (Smolen G A, Sordella R, Muir B, Mohapatra G, Barmettler A, Archibald H, et al. Amplification of MET may identify a subset of cancers with extreme sensitivity to the selective tyrosine kinase inhibitor PHA-665752. Proc Natl Acad Sci USA 2006). We have developed a sensitive method to follow c-Met phosphorylation in these cells. In previous studies with earlier generation c-Met inhibitors, we established that the IC50s for the inhibition of c-Met phosphorylation were identical using this novel ELISA approach and standard western blot procedure, with antibodies directed against the activating autocatalysis tyrosine residues of c-MET (Tyr Y1230-34-35).
Cell treatments: MKN45 cells are seeded into wells of 96-well plates at a density of 3×10^4 cells/well in RPMI medium supplemented with 10% FBS. HA-TPR-RON expressing 293T (clone 18) cells are seeded into wells of 96-well plates at a density of 3×10^4 cells/well in DMEM medium supplemented with 10% FBS. Cells are grown for 48 h prior to treatments with compounds of interest. Inhibitors are added to the medium in triplicate wells at the indicated doses. After 3 h of treatment, media is aspirated and cells are lysed by one freeze-thaw cycle in 50 μL/well hypotonic lysis buffer (25 mM HEPES pH 7.5, 10 mM NaCl with 1 mM 4-(2-aminoethyl)benzenesulfonyl fluoride hydrochloride, 200 μM sodium orthovanadate, 1 mM sodium fluoride, 10 μg/mL of leupeptin, 10 μg/mL of aprotinin/mL, 1 μg/mL of pepstatin and 50 μg/mL Na-p-tosyl-L-lysine chloromethyl ketone hydrochloride.
Detection of phosphorylated c-Met by direct ELISA: Lysate samples (5 μL) from wells of treatment plates are transferred to 80 μL of binding buffer (25 mM HEPES pH 7.5, 200 mM NaCl) in wells of high binding white polysterene 96-well plates (Corning). After an overnight protein binding incubation at 4° C., lysates are aspirated and wells are blocked for 1 h at 37° C. in TBST supplemented with 5% BSA. Plates are incubated with the primary antibodies anti-phospho-Tyrosine (Millipore, 4G10) diluted 1/15000 in TBST supplemented with 5% BSA for 1 h at room temperature. Plates are washed 3 times on a plate washer (SkanWasher, Molecular Devises), and incubated with the reporter antibody […] (Sigma) diluted 1/15000 in TBST supplemented with 5% BSA, for 1 h at room temperature. Plates are washed 3 times with TBST using on a plate washer and subsequently incubated with chemiluminescent substrate solution (ECL, Roche). Luminescence signal is captured on a Polar Star Optima apparatus (BMG LabTech).
Average values of the triplicate samples are used to prepare IC50 curves using a 4-parameter fit model. These curves are calculated using, for example, GraFit 5.0 software. For assay standardization purpose, an internal control is included on each experimental test plate.

T2 sequence (P08581 25-1390): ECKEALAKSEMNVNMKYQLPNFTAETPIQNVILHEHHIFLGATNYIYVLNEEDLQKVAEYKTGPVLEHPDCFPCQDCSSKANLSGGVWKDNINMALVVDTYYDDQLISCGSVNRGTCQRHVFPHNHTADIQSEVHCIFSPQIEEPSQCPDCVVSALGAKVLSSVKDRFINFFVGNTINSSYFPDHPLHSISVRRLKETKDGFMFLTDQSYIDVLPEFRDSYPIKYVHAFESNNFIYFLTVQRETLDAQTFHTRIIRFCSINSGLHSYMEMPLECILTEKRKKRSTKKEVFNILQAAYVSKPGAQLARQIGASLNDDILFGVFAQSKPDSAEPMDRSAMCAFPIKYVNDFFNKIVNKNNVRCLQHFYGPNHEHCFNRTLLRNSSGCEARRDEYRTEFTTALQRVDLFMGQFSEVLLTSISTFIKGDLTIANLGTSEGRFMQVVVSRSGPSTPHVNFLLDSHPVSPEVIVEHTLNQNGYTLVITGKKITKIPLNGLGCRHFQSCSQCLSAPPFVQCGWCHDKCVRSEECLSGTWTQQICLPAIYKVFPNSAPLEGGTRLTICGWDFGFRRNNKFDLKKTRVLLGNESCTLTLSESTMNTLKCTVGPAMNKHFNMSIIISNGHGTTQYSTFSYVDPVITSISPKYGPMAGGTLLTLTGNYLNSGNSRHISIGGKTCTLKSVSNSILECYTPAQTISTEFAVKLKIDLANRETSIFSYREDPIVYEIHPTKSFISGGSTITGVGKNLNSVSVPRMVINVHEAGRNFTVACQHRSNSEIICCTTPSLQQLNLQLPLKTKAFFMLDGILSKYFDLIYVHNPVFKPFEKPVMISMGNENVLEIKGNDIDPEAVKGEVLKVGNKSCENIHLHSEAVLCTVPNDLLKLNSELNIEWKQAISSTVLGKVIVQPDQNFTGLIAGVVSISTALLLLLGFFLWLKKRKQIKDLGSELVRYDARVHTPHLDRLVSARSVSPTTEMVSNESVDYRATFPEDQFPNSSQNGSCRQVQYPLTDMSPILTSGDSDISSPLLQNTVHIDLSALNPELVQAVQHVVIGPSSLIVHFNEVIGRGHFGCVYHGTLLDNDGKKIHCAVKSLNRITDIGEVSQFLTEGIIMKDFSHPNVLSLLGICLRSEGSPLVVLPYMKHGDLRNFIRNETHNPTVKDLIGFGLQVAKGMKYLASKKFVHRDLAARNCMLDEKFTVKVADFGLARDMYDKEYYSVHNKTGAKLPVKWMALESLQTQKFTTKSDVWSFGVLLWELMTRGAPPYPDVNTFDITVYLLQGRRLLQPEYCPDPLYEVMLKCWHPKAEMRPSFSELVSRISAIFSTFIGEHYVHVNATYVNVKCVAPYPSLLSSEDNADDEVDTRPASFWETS

Compound	IC50 [nM]
COCCNCc1ccc(-c2cc3nccc(Oc4ccc(NC(=O)C5(C(=O)Nc6ccccc6)CC5)cc4F)c3s2)cc1 [drawing 310]	< 250
COCCNCc1ccc(-c2cc3nccc(Oc4ccc(NC(=S)NC(=O)Cc5ccccc5OC)cc4F)c3s2)nc1 [drawing 311]	< 250
COCCNCCn1cnc(-c2cc3nccc(Oc4ccc(NC(=S)NC(=O)Cc5ccc(F)cc5)cc4F)c3s2)c1 [drawing 318]	< 250

The next lines start with the values.

IC50 [nM]	Compound
< 250	COCCNCc1ccc(-c2cc3nccc(Oc4ccc(NC(=S)NC(=O)Cc5ccccc5)cc4F)c3s2)cn1 [drawing 308]
< 250	COCCNCc1ccc(-c2cc3nccc(Oc4ccc(NC(=S)NC(=O)Cc5ccc(F)cc5)cc4F)c3s2)cn1 [drawing 309]

Target: recombinant human c-Met/HGF receptor (Homo sapiens, UniProt P08581)
Test: In vitro receptor tyrosine kinase assay (DELFIA), c-Met/HGF receptor
Details: not given

Chain of recombinant human c-Met/HGF receptor (P08581 1078-1337): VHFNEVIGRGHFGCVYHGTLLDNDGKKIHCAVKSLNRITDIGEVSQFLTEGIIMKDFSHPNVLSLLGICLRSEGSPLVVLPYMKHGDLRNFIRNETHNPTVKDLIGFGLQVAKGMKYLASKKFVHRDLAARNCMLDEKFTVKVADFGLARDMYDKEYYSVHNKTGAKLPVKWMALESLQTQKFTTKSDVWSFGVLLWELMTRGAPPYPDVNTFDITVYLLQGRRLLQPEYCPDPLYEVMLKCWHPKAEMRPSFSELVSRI

Compound	IC50 [nM]
COCCNCc1ccc(-c2cc3nccc(Oc4ccc(NC(=O)C5(C(=O)Nc6ccccc6)CC5)cc4F)c3s2)cc1 [drawing 310]	< 250
COCCNCc1ccc(-c2cc3nccc(Oc4ccc(NC(=S)NC(=O)Cc5ccccc5OC)cc4F)c3s2)nc1 [drawing 311]	< 250
COCCNCCn1cnc(-c2cc3nccc(Oc4ccc(NC(=S)NC(=O)Cc5ccc(F)cc5)cc4F)c3s2)c1 [drawing 318]	< 250

Further lines, results first:

IC50 [nM]	Compound
< 250	COCCNCc1ccc(-c2cc3nccc(Oc4ccc(NC(=S)NC(=O)Cc5ccccc5)cc4F)c3s2)cn1 [drawing 308]
< 250	COCCNCc1ccc(-c2cc3nccc(Oc4ccc(NC(=S)NC(=O)Cc5ccc(F)cc5)cc4F)c3s2)cn1 [drawing 309]
